Measured values from patent publication US11306117B2, “Whitening composition containing novel quercetin-based compound” (AMOREPACIFIC CORPORATION, priority 2017, dated 2022).

Tested on: Mel-Ab cell line
Test: Inhibition of melanogenesis in Mel-Ab cells (method of Dooley)
Type: cell-based, C57BL/6
Details: melanin by absorbance at 400 nm after 5 days
Method: The effects of New Materials 31 and 32 on inhibiting melanogenesis were compared with Kojic acids which have been known to have an excellent skin whitening effect, and measured.
Specifically, the degree of melanogenesis in cells was measured by a method of Dooley. As the cell line, Mel-Ab cell line (Falcon, U.S.A.) derived from a skin pigment of C57BL/6 was used. Culturing was made under the condition of 37° C., 5% CO2 of a DMEM medium containing 10% placenta serum, 100 nM 12-O-tetradecanoylphorbol-13-acetate, and 1 nM Cholera Toxin. The test materials were treated in the manner where the cultured Mel-Ab cell was isolated with 0.25% trypsin-EDTA, and inoculated again with the same number (1×10^5 cells/well) in the 24-well plate, and then the medium was replaced with a medium containing the test materials for two days from the second day. As the test materials, 5 ppm, 10 ppm, 25 ppm and 50 ppm of New Materials 31 and 32, 25 ppm, 50 ppm and 100 ppm of Kojic acids and DMSO (control) were used. After 5 days, the test materials were treated with 1N-NaOH to dissolve melanin contained in the cell, and the amount of melanin was measured by measuring absorbance at 400 nm. The concentration (IC50) of the material necessary for reducing melanogenesis of melanocyte by half was calculated, and the results are shown in following Table 4.

Compound	IC50 inhibiting melanogenesis
C[C@@H]1O[C@@H](OC[C@H]2O[C@@H](Oc3c(-c4ccc(O)c(O)c4)oc4cc(O)cc(O)c4c3=O)[C@H](O)[C@@H](OC(=O)/C=C/c3ccc(O)cc3)[C@@H]2O)[C@H](O)[C@H](O[C@@H]2O[C@H](CO)[C@@H](O)[C@H](O)[C@H]2O)[C@H]1O [New Material 31, quercetin3-O-[3-O″-(E)-p-coumaroyl][β-D-glucopyranosyl-(1→3)-O-α-L-rhamnopyranosyl-(1→6)-O-β-D-glucopyranoside]]	23.5 ppm
C[C@@H]1O[C@@H](OC[C@H]2O[C@@H](Oc3c(-c4ccc(O)c(O)c4)oc4cc(O)cc(O)c4c3=O)[C@H](O)[C@@H](OC(=O)/C=C/c3ccc(O)cc3)[C@@H]2O)[C@H](O)[C@H](O)[C@H]1O [New Material 32, quercetin3-O-[3-O″-(E)-p-coumaroyl][α-L-rhamnopyranosyl-(1→6)-O-β-D-glucopyranoside]]	23.5 ppm
